Data: patent US5648333A, “Peptides having bradykinin antagonist action” (Hoechst Aktiengesellschaft, priority 1988, dated 1997)
Where a SMILES comes first, the peptide text is derived from it. [ ]: non-standard residue; d: D form. Oic = O=C(O)[C@@H]1C[C@@H]2CCCC[C@@H]2N1; Hyp = O=C(O)[C@@H]1C[C@@H](O)CN1; dTic = O=C(O)[C@H]1Cc2ccccc2CN1

Target: T1, isolated pulmonary artery of the guinea pig (Cavia porcellus, UniProt O70526)
T1 sequence (O70526 1-372): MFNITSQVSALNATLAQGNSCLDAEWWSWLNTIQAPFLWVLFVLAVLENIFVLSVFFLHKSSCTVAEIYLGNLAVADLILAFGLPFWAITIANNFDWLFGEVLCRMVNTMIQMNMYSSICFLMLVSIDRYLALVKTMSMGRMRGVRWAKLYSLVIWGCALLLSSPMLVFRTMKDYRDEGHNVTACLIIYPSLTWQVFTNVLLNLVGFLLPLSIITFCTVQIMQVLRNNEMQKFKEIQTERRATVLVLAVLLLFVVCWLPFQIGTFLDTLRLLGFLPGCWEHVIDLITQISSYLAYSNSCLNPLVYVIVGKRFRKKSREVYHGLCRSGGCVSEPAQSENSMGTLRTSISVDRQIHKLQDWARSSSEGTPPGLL
Test: bradykinin antagonist action on the isolated arteria pulmonalis of the guinea pig (decrease of bradykinin-induced contraction)
Method: For testing the peptides according to the invention on the isolated arteria pulmonalis, guinea pigs (Dunkin Hartley) having a weight of 400-450 g are sacrificed by a blow to the back of the neck.
The thorax is opened and the arteria pulmonalis is carefully dissected out. The surrounding tissue is carefully removed and the arteria pulmonalis is cut spirally at an angle of 45°.
The vessel strip of 2.5 cm length and 3-4 mm width is fixed in a 10 ml capacity organ bath which is filled with Ringer solution.
95% O2 and 5% CO2 is bubbled through the solution, which is warmed to 37° C. The pH is 7.4 and the preload on the vessel strip is 1.0 g.
The isotonic contraction changes are detected using a lever arrangement and an HF modem (position sensor) from Hugo Sachs and recorded on a compensating recorder (BEC, Goerz Metrawatt SE 460).
After equilibration for 1 hour, the experiment is begun.
For the detection of a partial agonistic effect, the peptides are used in the doses 1×10^-5 -1×10^-3 mol/l.

[1] = Table 1, vessel strip contracted with 2×10^-7 mol/l of bradykinin, peptides act 10 minutes, calculated from dose-effect curves

With CC(C)C[C@H](NC(=O)CNC(=O)[C@@H]1C[C@@H](O)CN1C(=O)[C@@H]1CCCN1C(=O)[C@H](CCCNC(=N)N)NC(=O)[C@H](N)CCCNC(=N)N)C(=O)N[C@@H](CO)C(=O)N1Cc2ccccc2C[C@@H]1C(=O)N1[C@H](C(=O)N[C@@H](CCCNC(=N)N)C(=O)O)C[C@@H]2CCCC[C@@H]21 [Example 199, H-(D)-Arg-Arg-Pro-Hyp-Gly-Leu-Ser-(D)-Tic-Oic-Arg-OH] (H-[dR]RP[Hyp]GLS[dTic][Oic]R-OH) the IC50 [1] was 5.9 nM.
Molecule CC(C)(C)[C@H](NC(=O)CNC(=O)[C@@H]1C[C@@H](O)CN1C(=O)[C@@H]1CCCN1C(=O)[C@H](CCCNC(=N)N)NC(=O)[C@H](N)CCCNC(=N)N)C(=O)N[C@@H](CO)C(=O)N1Cc2ccccc2C[C@@H]1C(=O)N1[C@H](C(=O)N[C@@H](CCCNC(=N)N)C(=O)O)C[C@@H]2CCCC[C@@H]21 [Example 201, H-(D)-Arg-Arg-Pro-Hyp-Gly-Tbg-Ser-(D)-Tic-Oic-Arg-OH] has an IC50 [1] of 6000 nM.
For N=C(N)NCCC[C@@H](N)C(=O)N[C@@H](CCCNC(=N)N)C(=O)N1CCC[C@H]1C(=O)N1C[C@H](O)C[C@H]1C(=O)NCC(=O)N[C@@H](Cc1cccs1)C(=O)N[C@@H](CO)C(=O)N1Cc2ccccc2C[C@@H]1C(=O)N1[C@H](C(=O)N[C@@H](CCCNC(=N)N)C(=O)O)C[C@@H]2CCCC[C@@H]21 [Example 59, H-(D)-Arg-Arg-Pro-Hyp-Gly-Thia-Ser-(D)-Tic-Oic-Arg-OH], the IC50 (table by Example No., test not named there, values coincide with Table 1) was 5.4 nM.
Work on N=C(N)NCCC[C@@H](N)C(=O)N[C@@H](CCCNC(=N)N)C(=O)N1CCC[C@H]1C(=O)N1C[C@H](O)C[C@H]1C(=O)NCC(=O)N[C@@H](CC1CCCCC1)C(=O)N[C@@H](CO)C(=O)N1Cc2ccccc2C[C@@H]1C(=O)N1[C@H](C(=O)N[C@@H](CCCNC(=N)N)C(=O)O)C[C@@H]2CCCC[C@@H]21 [Example 200, H-(D)-Arg-Arg-Pro-Hyp-Gly-Cha-Ser-(D)-Tic-Oic-Arg-OH] yielded an IC50 [1] of 37 nM.
